Laboratory results published in PubChem BioAssay (NCI).
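Five compound concentrations were applied to cells in 96-well plates for 48 hours; endpoints were derived by simple linear interpolation of the resulting dose-response curve. At the GI50, growth is halved. The concentration for full growth arrest is given as TGI.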

What was measured:
Test in all cases: NCI anticancer screen, dose series, 48 h
TK-10 renal = system: TK-10 renal
NCI-H460 lung = system: NCI-H460 lung
SK-OV-3 ovarian = system: SK-OV-3 ovarian
A498 renal = system: A498 renal
A549 NSCLC = system: A549 NSCLC
HOP-62 NSCLC = system: HOP-62 NSCLC

Compound C=C(C=O)[C@@H]1CC[C@]2(COC(C)=O)CC[C@]3(C)C(CC[C@@H]4[C@@]5(C)CC[C@H](OC(C)=O)C(C)(C)[C@@H]5CC[C@]43C)[C@@H]12 (some centres not stated) has a GI50 (TK-10 renal) greater than 100 µM, a TGI (TK-10 renal) greater than 100 µM and a GI50 (NCI-H460 lung) greater than 100 µM. The TGI (NCI-H460 lung) was greater than 100 µM, the GI50 (SK-OV-3 ovarian) was greater than 100 µM and the TGI (SK-OV-3 ovarian) was greater than 100 µM. For the same compound, the GI50 (A498 renal) was greater than 100 µM, the TGI (A498 renal) was greater than 100 µM and the GI50 (A549 NSCLC) was greater than 100 µM. For the same compound, the TGI (A549 NSCLC) was greater than 100 µM, the GI50 (HOP-62 NSCLC) was greater than 100 µM and the TGI (HOP-62 NSCLC) was greater than 100 µM.
